# Target: Aβ42 (Homo sapiens, UniProt P05067)
# Experiment: Th-T (thioflavin-T) assay of Aβ42 aggregation
# Assay type: biochemical
# Conditions: for Th-T fluorescence, mean of three wells: compound at 50
# Sequence of Aβ42 (P05067 672-713): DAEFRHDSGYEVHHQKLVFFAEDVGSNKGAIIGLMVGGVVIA
smiles,measurement,setting,value
C=C1CCC2C(C)(CCC=C(C)C)C(O)CCC2(C)C1Cc1c(OC)oc(C)c(C(=O)OC)c1=O (stereo not drawn) [Compound 14],"Th-T fluorescence, mean of three wells",reading M54 of time course,4.776
same,"Th-T fluorescence, mean of three wells",reading M55 of time course,4.689
same,"Th-T fluorescence, mean of three wells",reading M56 of time course,4.625
same,"Th-T fluorescence, mean of three wells",reading M57 of time course,4.524
same,"Th-T fluorescence, mean of three wells",reading M58 of time course,4.45
same,"Th-T fluorescence, mean of three wells",reading M59 of time course,4.296
same,"Th-T fluorescence, mean of three wells",reading M60 of time course,4.2063
same,"Th-T fluorescence, mean of three wells",reading M61 of time course,4.042
same,"Th-T fluorescence, mean of three wells",reading M62 of time course,3.946
same,"Th-T fluorescence of Aβ42 with compound, mean of three wells (Fig. 7a source data)","concentration 10, unit not given, time-course reading M129",2.897
same,"Th-T fluorescence of Aβ42 with compound, mean of three wells (Fig. 7a source data)","concentration 10, unit not given, time-course reading M130",2.933
same,"Th-T fluorescence of Aβ42 with compound, mean of three wells (Fig. 7a source data)","concentration 10, unit not given, time-course reading M131",2.925
same,"Th-T fluorescence of Aβ42 with compound, mean of three wells (Fig. 7a source data)","concentration 10, unit not given, time-course reading M132",2.913
same,"Th-T fluorescence of Aβ42 with compound, mean of three wells (Fig. 7a source data)","concentration 10, unit not given, time-course reading M133",2.914
same,"Th-T fluorescence of Aβ42 with compound, mean of three wells (Fig. 7a source data)","concentration 10, unit not given, time-course reading M134",2.928
same,"Th-T fluorescence of Aβ42 with compound, mean of three wells (Fig. 7a source data)","concentration 10, unit not given, time-course reading M135",2.926
same,"Th-T fluorescence of Aβ42 with compound, mean of three wells (Fig. 7a source data)","concentration 10, unit not given, time-course reading M136",2.935
same,"Th-T fluorescence of Aβ42 with compound, mean of three wells (Fig. 7a source data)","concentration 10, unit not given, time-course reading M137",2.902
same,"Th-T fluorescence of Aβ42 with compound, mean of three wells (Fig. 7a source data)","concentration 10, unit not given, time-course reading M138",2.929
same,"Th-T fluorescence of Aβ42 with compound, mean of three wells (Fig. 7a source data)","concentration 10, unit not given, time-course reading M139",2.934
same,"Th-T fluorescence of Aβ42 with compound, mean of three wells (Fig. 7a source data)","concentration 10, unit not given, time-course reading M140",2.924
same,"Th-T fluorescence of Aβ42 with compound, mean of three wells (Fig. 7a source data)","concentration 10, unit not given, time-course reading M141",2.927
same,"Th-T fluorescence of Aβ42 with compound, mean of three wells (Fig. 7a source data)","concentration 10, unit not given, time-course reading M142",2.953
same,"Th-T fluorescence of Aβ42 with compound, mean of three wells (Fig. 7a source data)","concentration 10, unit not given, time-course reading M143",2.943
same,"Th-T fluorescence of Aβ42 with compound, mean of three wells (Fig. 7a source data)","concentration 10, unit not given, time-course reading M144",2.936
same,"Th-T fluorescence of Aβ42 with compound, mean of three wells (Fig. 7a source data)","concentration 10, unit not given, time-course reading M145",2.952
same,"Th-T fluorescence of Aβ42 with compound, mean of three wells (Fig. 7a source data)","concentration 20, unit not given, time-course reading M129",1.587
same,"Th-T fluorescence of Aβ42 with compound, mean of three wells (Fig. 7a source data)","concentration 20, unit not given, time-course reading M130",1.596
same,"Th-T fluorescence of Aβ42 with compound, mean of three wells (Fig. 7a source data)","concentration 20, unit not given, time-course reading M131",1.618
same,"Th-T fluorescence of Aβ42 with compound, mean of three wells (Fig. 7a source data)","concentration 20, unit not given, time-course reading M132",1.578
same,"Th-T fluorescence of Aβ42 with compound, mean of three wells (Fig. 7a source data)","concentration 20, unit not given, time-course reading M133",1.602
same,"Th-T fluorescence of Aβ42 with compound, mean of three wells (Fig. 7a source data)","concentration 20, unit not given, time-course reading M134",1.594
same,"Th-T fluorescence of Aβ42 with compound, mean of three wells (Fig. 7a source data)","concentration 20, unit not given, time-course reading M135",1.594
same,"Th-T fluorescence of Aβ42 with compound, mean of three wells (Fig. 7a source data)","concentration 20, unit not given, time-course reading M136",1.5818
same,"Th-T fluorescence of Aβ42 with compound, mean of three wells (Fig. 7a source data)","concentration 20, unit not given, time-course reading M137",1.578
same,"Th-T fluorescence of Aβ42 with compound, mean of three wells (Fig. 7a source data)","concentration 20, unit not given, time-course reading M138",1.586
same,"Th-T fluorescence of Aβ42 with compound, mean of three wells (Fig. 7a source data)","concentration 20, unit not given, time-course reading M139",1.563
same,"Th-T fluorescence of Aβ42 with compound, mean of three wells (Fig. 7a source data)","concentration 20, unit not given, time-course reading M140",1.578
same,"Th-T fluorescence of Aβ42 with compound, mean of three wells (Fig. 7a source data)","concentration 20, unit not given, time-course reading M141",1.561
same,"Th-T fluorescence of Aβ42 with compound, mean of three wells (Fig. 7a source data)","concentration 20, unit not given, time-course reading M142",1.586
same,"Th-T fluorescence of Aβ42 with compound, mean of three wells (Fig. 7a source data)","concentration 20, unit not given, time-course reading M143",1.575
same,"Th-T fluorescence of Aβ42 with compound, mean of three wells (Fig. 7a source data)","concentration 20, unit not given, time-course reading M144",1.583
same,"Th-T fluorescence of Aβ42 with compound, mean of three wells (Fig. 7a source data)","concentration 20, unit not given, time-course reading M145",1.572
same,"Th-T fluorescence of Aβ42 with compound, mean of three wells (Fig. 7a source data)","concentration 50, unit not given, time-course reading M129",0.8842
same,"Th-T fluorescence of Aβ42 with compound, mean of three wells (Fig. 7a source data)","concentration 50, unit not given, time-course reading M130",0.8634
same,"Th-T fluorescence of Aβ42 with compound, mean of three wells (Fig. 7a source data)","concentration 50, unit not given, time-course reading M131",0.8505
same,"Th-T fluorescence of Aβ42 with compound, mean of three wells (Fig. 7a source data)","concentration 50, unit not given, time-course reading M132",0.8369
same,"Th-T fluorescence of Aβ42 with compound, mean of three wells (Fig. 7a source data)","concentration 50, unit not given, time-course reading M133",0.8131
same,"Th-T fluorescence of Aβ42 with compound, mean of three wells (Fig. 7a source data)","concentration 50, unit not given, time-course reading M134",0.8297
same,"Th-T fluorescence of Aβ42 with compound, mean of three wells (Fig. 7a source data)","concentration 50, unit not given, time-course reading M135",0.8031
same,"Th-T fluorescence of Aβ42 with compound, mean of three wells (Fig. 7a source data)","concentration 50, unit not given, time-course reading M136",0.8035
same,"Th-T fluorescence of Aβ42 with compound, mean of three wells (Fig. 7a source data)","concentration 50, unit not given, time-course reading M137",0.7873
same,"Th-T fluorescence of Aβ42 with compound, mean of three wells (Fig. 7a source data)","concentration 50, unit not given, time-course reading M138",0.78
same,"Th-T fluorescence of Aβ42 with compound, mean of three wells (Fig. 7a source data)","concentration 50, unit not given, time-course reading M139",0.7658
same,"Th-T fluorescence of Aβ42 with compound, mean of three wells (Fig. 7a source data)","concentration 50, unit not given, time-course reading M140",0.7572
same,"Th-T fluorescence of Aβ42 with compound, mean of three wells (Fig. 7a source data)","concentration 50, unit not given, time-course reading M141",0.7413
same,"Th-T fluorescence of Aβ42 with compound, mean of three wells (Fig. 7a source data)","concentration 50, unit not given, time-course reading M142",0.7418
